Test results as given in US20260137693A1, “CANCER TREATMENTS USING MTA-COOPERATIVE PRMT5 INHIBITORS AND MAT2A INHIBITORS” (AMGEN INC., priority 2022, published 2026).

What was measured:
[1] = system: Pancreatic cancer cell line BxPC3; test: Combination of Compound A and Compound B, CellTiter-Glo cell viability, BxPC3 (Example 2); assay type: cell-based; settings: BxPC3, 6 days, up to 10 μM
Protocol: (§1) Pancreatic cancer cell line BxPC3 was treated with the combination of Compound A and Compound B for 6 days. Top concentration of Compound A tested was 2 μM with a total of nine 1.9-fold dilutions and DMSO-only control. Top concentration of Compound B tested was 10 μM with a total of five 2-fold dilutions and DMSO-only control. Cell viability was measured by the CellTiter-Glo Luminescence assay. Raw luminescent values were converted to POC with the following equation: POC=100*(Treatment/Vehicle). FIG. 2 represents 1 of the 3 studies conducted. N=2 technical replicates. Mean and standard deviation graphed.

[2] = system: NSCLC cancer cell line CALU1; test: Combination of Compound A and Compound B, CellTiter-Glo cell viability, CALU1 (Example 2); assay type: cell-based; settings: CALU1, 6 days, up to 10 μM
Protocol: as §1, with “NSCLC cancer” for “Pancreatic cancer”, “line CALU1” for “line BxPC3”, “was 10” for “was 2”, “FIG. 1” for “FIG. 2”, “the 2” for “the 3”

Nc1nc(=O)n(-c2ccccc2Cl)c2nc(C(F)(F)F)ccc12 [Compound B, 4-amino-1-(2-chlorophenyl)-7-(trifluoromethyl)pyrido[2,3-d]pyrimidin-2(1H)-one]
sensitivity of the model to single agent [1]: insensitive
sensitivity of the model to single agent [2]: insensitive
